In the supplement of paper PMC10307832:

Tests used:
Experiment in all cases: relative viability (nuclei count vs DMSO), 5 days (fraction); higher = more cells survive
Sorafenib + Palbociclib = compound: CNC(=O)c1cc(Oc2ccc(NC(=O)Nc3ccc(Cl)c(C(F)(F)F)c3)cc2)ccn1 [Sorafenib] + CC(=O)c1c(C)c2cnc(Nc3ccc(N4CCNCC4)cn3)nc2n(C2CCCC2)c1=O [Palbociclib] (partner 0.5 µM)
In short: (§1)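 Lung cancer cell lines were pin-tool dosed in 1536-well plates on the day after seeding, with either a lone drug or a fixed anchor-drug dose plus five library-drug doses (not always all listed) in √10 steps. Nuclei were counted on 4× images after 5 days. Relative viability is the ratio of treated-well to vehicle-well nuclei counts, with each value a median of duplicate plates.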

Sorafenib + Bortezomib = compound: CNC(=O)c1cc(Oc2ccc(NC(=O)Nc3ccc(Cl)c(C(F)(F)F)c3)cc2)ccn1 [Sorafenib] + CC(C)C[C@H](NC(=O)[C@H](Cc1ccccc1)NC(=O)c1cnccn1)B(O)O [Bortezomib] (partner 0.002 µM)
In short: as §1

Sorafenib + Navitoclax = compound: CNC(=O)c1cc(Oc2ccc(NC(=O)Nc3ccc(Cl)c(C(F)(F)F)c3)cc2)ccn1 [Sorafenib] + CC1(C)CCC(c2ccc(Cl)cc2)=C(CN2CCN(c3ccc(C(=O)NS(=O)(=O)c4ccc(N[C@H](CCN5CCOCC5)CSc5ccccc5)c(S(=O)(=O)C(F)(F)F)c4)cc3)CC2)C1 [Navitoclax] (partner 0.5 µM)
In short: as §1

Sorafenib + OSI-027 = compound: CNC(=O)c1cc(Oc2ccc(NC(=O)Nc3ccc(Cl)c(C(F)(F)F)c3)cc2)ccn1 [Sorafenib] + COc1cccc2cc(-c3nc([C@H]4CC[C@H](C(=O)O)CC4)n4ncnc(N)c34)[nH]c12 [OSI-027] (partner 0.5 µM)
In short: as §1

Sorafenib + Decitabine = compound: CNC(=O)c1cc(Oc2ccc(NC(=O)Nc3ccc(Cl)c(C(F)(F)F)c3)cc2)ccn1 [Sorafenib] + Nc1ncn([C@H]2C[C@H](O)[C@@H](CO)O2)c(=O)n1 [Decitabine] (partner 2 µM)
In short: as §1

Cell Line	relative viability (Sorafenib + Palbociclib; first compound 0.08 µM)	relative viability (Sorafenib + Palbociclib; first compound 0.253 µM)	relative viability (Sorafenib + Palbociclib; first compound 2.53 µM)	relative viability (Sorafenib + Palbociclib; first compound 8 µM)	relative viability (Sorafenib + Bortezomib; first compound 0.08 µM)	relative viability (Sorafenib + Bortezomib; first compound 0.253 µM)	relative viability (Sorafenib + Bortezomib; first compound 2.53 µM)	relative viability (Sorafenib + Bortezomib; first compound 8 µM)	relative viability (Sorafenib + Navitoclax; first compound 0.08 µM)	relative viability (Sorafenib + Navitoclax; first compound 0.253 µM)	relative viability (Sorafenib + Navitoclax; first compound 2.53 µM)	relative viability (Sorafenib + Navitoclax; first compound 8 µM)	relative viability (Sorafenib + OSI-027; first compound 0.08 µM)	relative viability (Sorafenib + OSI-027; first compound 0.253 µM)	relative viability (Sorafenib + OSI-027; first compound 2.53 µM)	relative viability (Sorafenib + OSI-027; first compound 8 µM)	relative viability (Sorafenib + Decitabine; first compound 0.08 µM)	relative viability (Sorafenib + Decitabine; first compound 0.253 µM)	relative viability (Sorafenib + Decitabine; first compound 2.53 µM)	relative viability (Sorafenib + Decitabine; first compound 8 µM)
EKVX	0.425	0.43	0.432	0.321	1.19	0.879	0.962	0.994	1.13	0.882	0.884	0.963	0.712	0.74	0.701	0.649	0.339	0.362	0.378	0.305
EMC-BAC-2	0.519	0.439	0.467	0.477	1.06	0.917	1.07	1.02	1.22	1.06	1.18	1.11	0.341	0.358	0.391	0.358	0.925			0.757
EPLC-272H	0.332	0.338	0.486	0.295	0.945	0.872	0.959	0.696	1.22	1.14	1.04	0.96	0.314	0.296	0.273	0.269	0.42	0.395	0.388	0.284
H3255	0.33	0.3	0.306	0.287	0.841	0.706	1.05	0.726	0.652	0.46	0.616	0.502	0.634	0.566	0.619	0.349	0.656	0.523	0.593	0.366
